Consider 16 molecules from patent US9091692B2, “Fluorescent dye” (SHINICHIRO ISOBE, priority 2011, dated 2015).

The first series can be described thus: Measurement of a fluorescence spectrum (absorption and fluorescent wavelength, fluorescence intensity). The format is physicochemical. Particulars: dissolved in DMSO, concentration 10^-4 M. How it is done: Measurement of a Fluorescence Spectrum
Each of the synthesized fluorescent dyes was dissolved in a solvent by using DMSO to prepare a solution having a concentration of 10^−4 M, so that the measurements of fluorescent wavelength and absorption wavelength were performed.
As for `O=C(CCCCC[n+]1ccc(-c2nc(-c3ccc(-c4ccc5ccccc5c4)s3)c3nonc3c2-c2cc(-c3ccc4ccccc4c3)cs2)cc1)ON1C(=O)CCC1=O` [Synthetic Example 16, active ester of 4,7-di[(2-naphthyl)thienyl]-1,2,5-oxadiazolopyridine-6-(4-pyridinium)], the Absorption wavelength is 516 nm, the Fluorescence wavelength amounted to 682 nm and the Stokes shift amounted to 166 nm.
The corresponding values for “active ester of 4,7-di[(2-bromo)thienyl]-1,2,5-oxadiazolopyridine-6-(4-vinylpyridinium) [Synthetic Example 17]” are 509 nm, 688 nm and 179 nm.
On to “active ester of 4,7-di[(2-naphthyl)thienyl]-1,2,5-oxadiazolopyridine-6-(4-vinylpyridinium) [Synthetic Example 19]”, for which the Absorption wavelength was 533 nm, the Fluorescence wavelength was 730 nm and the Stokes shift is 197 nm.
In the case of `O=C(CCCCC[n+]1cccc(-c2nc(-c3ccccc3)c3nonc3c2-c2ccccc2)c1)ON1C(=O)CCC1=O` [Synthetic Example 12], the Absorption wavelength turned out to be 382 nm, the Fluorescence wavelength was found to be 513 nm and the Stokes shift came to 131 nm.
For “active ester of 4,7-di(methylthienyl)-1,2,5-oxadiazolopyridine-6-(3-pyridinium) [Synthetic Example 9]”, the Absorption wavelength turned out to be 539 nm, the Fluorescence wavelength is on record as 660 nm and the Stokes shift worked out at 121 nm.
The corresponding values for `Cc1csc(-c2c(-c3cc[n+](CCCCCC(=O)ON4C(=O)CCC4=O)cc3)nc(-c3ccc(C)s3)c3nonc23)c1` [Synthetic Example 11, active ester of 4,7-di(methylthienyl)-1,2,5-oxadiazolopyridine-6-(4-pyridinium)] are 528 nm, 648 nm and 120 nm.
Take “active ester of 4,7-di[(1-naphthyl)thienyl]-1,2,5-oxadiazolopyridine-6-(4-pyridinium) [Synthetic Example 15]”: the Absorption wavelength was 532 nm, the Fluorescence wavelength is 722 nm and the Stokes shift worked out at 190 nm.
Taken in the same sequence, the figures for `O=C(CCCCC[n+]1ccc(-c2nc(-c3ccc(-c4ccc(-c5ccccc5)cc4)s3)c3nonc3c2-c2cc(-c3ccc(-c4ccccc4)cc3)cs2)cc1)ON1C(=O)CCC1=O.[Br-]` [Synthetic Example 20, active ester of 4,7-di[(2-biphenyl)thienyl]-1,2,5-oxadiazolopyridine-6-(4-pyridinium)] were 529 nm, 715 nm and 186 nm.
The corresponding values for `O=C(CCCCC[n+]1ccc(/C=C/c2nc(-c3ccc(-c4cccc5ccccc45)s3)c3nonc3c2-c2ccc(-c3cccc4ccccc34)s2)cc1)ON1C(=O)CCC1=O` [Synthetic Example 18, active ester of 4,7-di[(1-naphthyl)thienyl]-1,2,5-oxadiazolopyridine-6-(4-vinylpyridinium)] are 535 nm, 700 nm and 165 nm.
As for “active ester of 4,7-di[(2-biphenyl)thienyl]-1,2,5-oxadiazolopyridine-6-(4-vinylpyridinium) [Synthetic Example 21]”, the Absorption wavelength is recorded as 404 nm, the Fluorescence wavelength is 527 nm and the Stokes shift was 123 nm.
Taken in the same sequence, the figures for “active ester of 4,7-di(bromothienyl)-1,2,5-oxadiazolopyridine-6-(4-pyridine) [Synthetic Example 13]” were 516 nm, 698 nm and 182 nm.
Consider `COc1ccc(-c2nc(/C=C/c3ccc[n+](CCCCCC(=O)ON4C(=O)CCC4=O)c3)c(-c3ccc(OC)cc3)c3nonc23)cc1` [Synthetic Example 2], for which the Absorption wavelength was 437 nm, the Fluorescence wavelength is reported as 608 nm and the Stokes shift was 171 nm.
Taken in the same sequence, the figures for “active ester of 4,7-di[(2-phenyl)thienyl]-1,2,5-oxadiazolopyridine-6-(4-pyridinium) [Synthetic Example 14]” were 500 nm, 710 nm and 210 nm.
Taken in the same sequence, the figures for `O=C(CCCCC[n+]1cccc(/C=C/c2nc(-c3ccccc3)c3nsnc3c2-c2ccccc2)c1)ON1C(=O)CCC1=O` [Synthetic Example 1] were 411 nm, 531 nm and 120 nm.
The corresponding values for `Cc1csc(-c2c(-c3ccc[n+](CCC(=O)ON4C(=O)CCC4=O)c3)nc(-c3ccc(C)s3)c3nonc23)c1` [Synthetic Example 10] are 531 nm, 650 nm and 119 nm.

Staying with this series, now noted: fluorescence intensity of Synthetic Example 22 was 1.0.
In the case of `O=C(CCCCC[n+]1cccc(-c2nc(-c3ccccc3)c3nonc3c2-c2ccccc2)c1)ON1C(=O)CCC1=O` [Synthetic Example 12], the “Fluorescence intensity relative to Synthetic Example 22” value was 6.0.
As for “active ester of 4,7-diphenyl-1,2,5-oxadiazolopyridine ethyl ester [Synthetic Example 22, reference compound]”, the “Fluorescence intensity relative to Synthetic Example 22” value is on record as 1.0.
On to `O=C(CCCCC[n+]1cccc(/C=C/c2nc(-c3ccccc3)c3nsnc3c2-c2ccccc2)c1)ON1C(=O)CCC1=O` [Synthetic Example 1], for which the “Fluorescence intensity relative to Synthetic Example 22” value amounted to 11.2.

Another series in a line: Direct solubility of the fluorescent dye in water. The format is physicochemical.
Conditions: not given
From the text: The fluorescent dyes obtained in Synthetic Examples 1 to 21 were each directly soluble in water. […] A stokes shift of 100 nm or more was obtained in all the synthesized fluorescent dyes. An absorption wavelength of 400 to 450 nm was obtained in the 4,7-diphenyl whereas an absorption wavelength of 500 nm or more and a fluorescence wavelength of 600 nm or more were obtained in the 4,7-thienyl. When the fluorescence intensity of Synthetic Example 22 was 1.0, a very high fluorescence intensity as much as 11.2 was obtained in Synthetic Example 1 and a very high fluorescence intensity as much as 6.0 was obtained in Synthetic Example 12.
In the case of “active ester of 4,7-diphenyl-1,2,5-oxadiazolopyridine ethyl ester [Synthetic Example 22, reference compound]”, the “Direct solubility in water” value is “could not be directly dissolved in water”.
